Experiments:
Assay in all cases: biochemical
PstS2 = target: T1, PstS2 (Parasynechococcus marenigrum, UniProt Q7U3C5)
T1 construct: gene SYNW2507
T1 sequence (Q7U3C5 24-336): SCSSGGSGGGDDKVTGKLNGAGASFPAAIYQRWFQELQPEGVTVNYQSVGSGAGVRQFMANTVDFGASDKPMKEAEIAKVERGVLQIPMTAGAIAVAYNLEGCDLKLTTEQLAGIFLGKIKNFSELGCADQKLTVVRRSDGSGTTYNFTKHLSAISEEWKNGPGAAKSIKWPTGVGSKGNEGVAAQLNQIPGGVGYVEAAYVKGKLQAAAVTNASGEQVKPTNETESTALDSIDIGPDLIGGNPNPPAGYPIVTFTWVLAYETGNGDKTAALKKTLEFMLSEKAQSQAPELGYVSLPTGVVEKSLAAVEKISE

PstS1a = target: T2, PstS1a (Parasynechococcus marenigrum, UniProt Q7U7G6)
T2 construct: gene SYNW1018
T2 sequence (Q7U7G6 25-324): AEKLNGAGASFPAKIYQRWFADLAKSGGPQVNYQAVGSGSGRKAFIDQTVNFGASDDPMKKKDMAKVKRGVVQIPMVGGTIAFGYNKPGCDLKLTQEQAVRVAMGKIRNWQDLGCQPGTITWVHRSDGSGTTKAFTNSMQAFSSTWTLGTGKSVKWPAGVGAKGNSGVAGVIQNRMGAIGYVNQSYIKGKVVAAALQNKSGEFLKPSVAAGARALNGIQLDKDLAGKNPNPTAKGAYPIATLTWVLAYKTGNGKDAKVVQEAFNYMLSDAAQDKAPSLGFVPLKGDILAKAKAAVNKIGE

PstS1b = target: T3, PstS1b (Parasynechococcus marenigrum, UniProt Q7U592)
T3 construct: gene SYNW1815
T3 sequence (Q7U592 26-325): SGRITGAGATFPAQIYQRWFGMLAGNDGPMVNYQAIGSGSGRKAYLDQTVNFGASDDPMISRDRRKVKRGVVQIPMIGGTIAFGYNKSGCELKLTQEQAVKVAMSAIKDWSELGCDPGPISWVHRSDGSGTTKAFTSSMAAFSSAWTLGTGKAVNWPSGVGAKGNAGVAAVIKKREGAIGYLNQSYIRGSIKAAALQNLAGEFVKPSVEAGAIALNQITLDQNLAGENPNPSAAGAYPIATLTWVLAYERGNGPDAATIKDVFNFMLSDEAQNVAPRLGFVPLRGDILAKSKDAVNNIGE

- Kd (PstS2): 4.3 µM
- Kd (PstS1a): 3.3 µM
- Kd (PstS1b): 0.44 µM
SMILES: O=P(O)(O)O [phosphate]

From paper PMC10846223, “Substrate specificity and ecological significance of PstS homologs in phosphorus uptake in marine Synechococcus sp. WH8102” (Microbiology Spectrum, 2024)
